Experimental data taken from paper PMC9024521, “4-Heteroaryl Substituted Amino-3,5-Dicyanopyridines as New Adenosine Receptor Ligands: Novel Insights on Structure-Activity Relationships and Perspectives” (Pharmaceuticals, 2022).

Assays:
[1] = target: T1, hA1AR (Homo sapiens, UniProt P30542); assay: Competition binding, [3H]DPCPX, hA1 CHO cell membranes; details: displacement of [3H]DPCPX, hA1 CHO cells; mean ± SEM of four assays
T1 construct: host or cells: CHO cells
T1 sequence (P30542 1-326): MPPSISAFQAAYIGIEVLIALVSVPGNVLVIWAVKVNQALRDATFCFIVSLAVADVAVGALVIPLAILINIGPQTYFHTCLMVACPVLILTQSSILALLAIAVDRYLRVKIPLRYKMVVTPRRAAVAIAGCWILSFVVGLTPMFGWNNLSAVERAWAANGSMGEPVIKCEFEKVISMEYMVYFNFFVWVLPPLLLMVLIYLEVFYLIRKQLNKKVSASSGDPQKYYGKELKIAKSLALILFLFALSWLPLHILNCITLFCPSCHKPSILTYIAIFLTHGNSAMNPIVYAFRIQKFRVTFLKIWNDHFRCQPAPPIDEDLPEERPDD
Description: (§1) CHO cells transfected with hA1, hA2A, hA2B and hA3 ARs (Perkin Elmer, Boston, MA, USA) were grown adherently and maintained in Dulbecco’s modified Eagle’s medium with nutrient mixture F12, containing 10% fetal calf serum, penicillin (100 U/mL), streptomycin (100 μg/mL), L-glutamine (2 mM) and geneticine (G418; 0.2 mg/mL), at 37 °C, in 5% CO2/95% air, until their use in cAMP assays. For membrane preparation, the culture medium was removed, and the cells were washed with phosphate-buffered saline and scraped off T75 flasks in ice-cold hypotonic buffer (5 mM Tris HCl, 1 mM EDTA, pH 7.4). The cell suspension was homogenized with a Polytron, centrifuged for 30 min at 40,000× g, at 4 °C, and the resulting membrane pellet was used for competition binding experiments.
(§2) All synthesized compounds were tested for their affinity to hA1, hA2A and hA3 ARs. Competition experiments to hA1AR were carried out by incubating 1 nM [^3H]-8-cyclopentyl-1,3-dipropylxanthine ([^3H]-DPCPX) with membrane suspension (50 μg of protein/100 μL) and different concentrations of the examined compounds at 25 °C for 90 min in 50 mM Tris HCl, pH 7.4. Non-specific binding was defined as binding in the presence of 1 μM DPCPX and was always <10% of the total binding. Inhibition experiments to hA2A ARs were performed by incubating the radioligand [^3H]-4-(-2-[7-amino-2-{2-furyl}{1,2,4}triazolo{2,3-a} {1,3,5}triazin-5-yl-amino]ethyl)phenol ([^3H]-ZM241385) (1 nM) with the membrane suspension (50 μg of protein/100 μL) and different concentrations of the examined compounds for 60 min, at 4 °C, in 50 mM Tris HCl (pH 7.4), 10 mM MgCl2. Non-specific binding was determined in the presence of ZM241385 (1 μM) and was about 20% of the total binding. Competition binding experiments to A3ARs were carried out by incubating the membrane suspension (50 μg of protein/100 μL) with 0.5 nM [^125I]-N6-(4-aminobenzyl)-N-methylcarboxamidoadenosine ([^125I]-ABMECA) in the presence of different concentrations of the examined compounds for an incubation time of 120 min, at 4 °C, in 50 mM Tris HCl (pH 7.4), 10 mM MgCl2, 1 mM EDTA. Non-specific binding was defined as binding in the presence of 1 μM ABMECA and was always <10% of the total binding. Bound and free radioactivity were separated by filtering the assay mixture through Whatman GF/B glass-fiber filters, using a Brandel cell harvester (Brandel Instruments, Unterföhring, Germany). The filter bound radioactivity was counted by Packard Tri Carb 2810 TR scintillation counter (Perkin Elmer).
(§3) The protein concentration was determined according to a Bio-Rad method, with bovine albumin as a standard reference. Inhibitory binding constant (Ki) values were calculated from those of IC50 according to the Cheng–Prusoff equation, Ki = IC50/(1 + [C*]/KD*), where [C*] is the concentration of the radioligand, and KD* its dissociation constant. Ki and IC50 values were calculated by non-linear regression analysis, using the equation for a sigmoid concentration-response curve (Graph-PAD Prism, San Diego, CA, USA).

[2] = target: T2, hA2AAR (Homo sapiens, UniProt P29274); assay: Competition binding, [3H]ZM241385, hA2A CHO cell membranes; details: displacement of [3H]ZM241385, hA2A CHO cells; mean ± SEM of four assays
T2 construct: host or cells: CHO cells
T2 sequence (P29274 whole entry): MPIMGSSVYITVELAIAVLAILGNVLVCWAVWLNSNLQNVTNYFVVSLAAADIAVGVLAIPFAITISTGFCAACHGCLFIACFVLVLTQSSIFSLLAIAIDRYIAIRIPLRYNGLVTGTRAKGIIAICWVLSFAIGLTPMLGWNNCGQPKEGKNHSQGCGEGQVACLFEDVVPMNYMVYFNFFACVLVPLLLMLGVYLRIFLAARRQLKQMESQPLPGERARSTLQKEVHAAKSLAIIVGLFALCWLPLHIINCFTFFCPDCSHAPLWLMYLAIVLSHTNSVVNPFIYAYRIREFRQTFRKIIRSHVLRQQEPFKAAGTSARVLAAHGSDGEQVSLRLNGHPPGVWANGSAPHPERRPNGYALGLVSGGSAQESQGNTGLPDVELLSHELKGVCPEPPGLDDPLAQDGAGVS
Description: as §1, §2, §3

[3] = target: T1, hA1AR; assay: Modulation of Forskolin-stimulated cAMP levels in hA1 CHO cells; format: cell-based; details: for EC50: footnote c, mean ± SEM of four experiments, read-out: hA1AR EC50 or IC50, potency to modulate Forskolin-stimulated cAMP levels; for hA1AR Efficacy: normalized: CCPA full agonist = 100%, DPCPX inverse agonist = −100%; for hA1AR Profile: pharmacological profile in cAMP assay
Description: The amino-3,5-dicyanopyridines 1–21 were tested for their affinity at hA1, hA2A and hA3 ARs, stably transfected in Chinese Hamster Ovary (CHO) cells. Moreover, they were also studied as hA2B agonists by evaluating their stimulatory effect on cAMP production in CHO cells, stably expressing the hA2B AR. […] Due to their interesting pan profile, both compounds 1 and 5 were evaluated as AR agonists also at the hA2A and hA3 subtypes.
as §1
CHO cells transfected with hAR subtypes were washed with phosphate-buffered saline, detached with tripsine and centrifuged for 10 min at 200× g. Cells were seeded in a 96-well white half-area microplate (Perkin Elmer, Boston, USA) in a stimulation buffer composed of Hank Balanced Salt Solution, 5 mM HEPES, 0.5 mM Ro 20–1724, 0.1% BSA. The cAMP levels were then quantified by using the AlphaScreen cAMP Detection Kit (Perkin Elmer, Boston, MA, USA), following the manufacturer’s instructions. At the end of the experiments, the plates were read with a Perkin Elmer EnSight Multimode Plate Reader.

Row | Ki [1] [nM] | Ki [2] [nM] | EC50 [3] [nM] | hA1AR Efficacy [3] [%] | hA1AR Profile [3] | Structure (SMILES)
1 | 9.63 ± 1.61 | 21 ± 2 | 12.2 ± 1.2 | 31 ± 3 | Partial Agonist | N#Cc1c(N)nc(SCc2ncc[nH]2)c(C#N)c1-c1ccco1 [Compound 1, 2-Amino-4-(furan-2-yl)-6-[(1H-imidazol-2-ylmethyl)sulfanyl]pyridine-3,5-dicarbonitrile]
2 | 2.5 ± 0.2 | 24 ± 2 | 1.95 ± 0.16 | 75 ± 5 | Partial Agonist | N#Cc1c(N)nc(SCc2ncc[nH]2)c(C#N)c1-c1cccs1 [Compound 5, 2-Amino-6-[(1H-imidazol-2-ylmethyl)sulfanyl]-4-(thiophen-2-yl)pyridine-3,5-dicarbonitrile]
